These results are taken from patent publication US9144578B2, “Fixed-dose association of phytate and zinc” (Universitat De Les Illes Balears, priority 2006, dated 2015).

A short description of assay [1]: in vitro kinetics of precipitation of hydroxyapatite (Example 1, FIG. 1). Conditions: [phosphate]=1.5 mM, [Ca^2+]=60 mg/l, pH=7.5. As for the experimental part: In said FIG. 1 it is shown that the first curve corresponds to direct precipitation without phytate or Zn^2+. The second (Zn^2+) consists of the addition of 0.038 μM of Zn^2+. […] The third curve (Phytate) corresponds to the precipitation of hydroxyapatite in the presence of 0.38 μM of phytate. […] Finally, the last graph (Phytate+Zn^2+) corresponds to the precipitation in the presence of 0.38 μM of phytate and 0.038 μM of Zn^2+ (phytate-Zn molar ratio 10:1).
An in vitro system was designed to study the kinetics of precipitation of hydroxyapatite. A system using the following experimental conditions: [phosphate]=1.5 mM, [Ca^2+]=60 mg/l, pH=7.5, was used. The kinetics of precipitation of the hydroxyapatite was recorded with a Shimadzu (UV-120-02) spectrophotometer using 3 ml plastic vials and recording the absorbance every 5 minutes at 550 nm.

Assay [2] can be described thus: in vitro kinetics of precipitation of hydroxyapatite (Example 2, FIG. 2). The conditions noted are these: [phosphate]=2.5 mM, [Ca^2+]=60 mg/l, pH=7.5. The procedure: In said FIG. 2 it is shown that the first series corresponds to the direct precipitation without phytate or Zn^2+. The second consists of the addition of 0.3 μM of Zn^2+. […] The third series corresponds to the precipitation of hydroxyapatite in the presence of 1.5 μM of phytate.
Finally, two series using 1.5 μM phytate and two different concentrations of zinc: Zn^2+: 0.3 μM (phytate-Zn molar ratio 5:1) and 0.15 μM (phytate-Zn molar ratio 10:1), respectively, are shown.
With the same system as in example 1, a system using the following experimental conditions: [phosphate]=2.5 mM, [Ca^2+]=60 mg/l, pH=7.5, was used. The kinetics of precipitation of the hydroxyapatite was recorded with a Shimadzu (UV-120-02) spectrophotometer using 3 ml plastic vials and recording the absorbance every 5 minutes at 550 nm.

SMILES strings stand for the structures. Entries after “also recorded” stand apart in the source; their conditions may differ.

For the compound `[Zn+2]` [Zn^2+], the “inhibiting effect on precipitation of hydroxyapatite” value is “no inhibiting effect” in assay [1] (0.038 μM of Zn^2+) and “no inhibiting effect; also recorded: does not show any inhibiting effect” in assay [2] (0.3 μM of Zn^2+).

Turning to `O=P(O)(O)O[C@H]1[C@H](OP(=O)(O)O)[C@@H](OP(=O)(O)O)[C@H](OP(=O)(O)O)[C@@H](OP(=O)(O)O)[C@H]1OP(=O)(O)O` [Phytate, Myo-inositol hexaphosphate], the “inhibiting effect on precipitation of hydroxyapatite” value in assay [1] (0.38 μM of phytate) and in assay [2] (1.5 μM of phytate) was “significant inhibiting effect” each time.
